Data: patent US20100284985A1, “Composition” (Danisco A/S, priority 2007, published 2010)

Key:
Experiment in all cases: MIC assay, LAE
Format in all cases: cell-based
Bacillus cereus DCS 500 = test system: Bacillus cereus DCS 500
Protocol: (§1) The Minimal Inhibition Concentration Assay (MIC) is a 96 well liquid based assay developed for a semi-automated assessment system and performed essentially as described in (7). […] From an overnight culture […] of each strain was inoculated in one well corresponding to an approximate inoculation density of 10^3-10^4 cells/well. Media used were CASO, MRS and YM (Appendix 1). Strains were incubated at 20° C., 25° C., 37° C. and under aerobic/anaerobic conditions depending on the preferred conditions for the particular strain (Appendix 1). At time zero, after adding the AM, the optical density (O.D.) of the bacterial culture is measured at 620 nm and then again after 24 hours. […] MIC is defined as the lowest concentration of the AM that will inhibit measurable growth. A bacteriostatic effect is defined as the OD620 at 24 h being less than or equal to 20% of the growth control.

[1] = test system: Bacillus licheniformis (spores) DCS 561sp; conditions: ppm of the active component
Protocol: as §1

[2] = test system: Bacillus licheniformis DCS 561
Protocol: as §1

[3] = test system: Bacillus weihenstephanensis DCS 565
Protocol: as §1

[4] = test system: Brochothrix thermosphacta DCS 780
Protocol: as §1

Candida pulcherrima H117 = conditions: ppm of the active component
Protocol: as §1

[5] = test system: Candida tropicalis DCS 604
Protocol: as §1

[6] = test system: Citrobacter freundii DCS 566
Protocol: as §1

[7] = test system: Clostridium algidicarnis DCS 563
Protocol: as §1

[8] = test system: Clostridium sporogenes (spores) DCS 541sp; conditions: ppm of the active component
Protocol: as §1

[9] = test system: Clostridium sporogenes (spores) DCS 808sp; conditions: ppm of the active component
Protocol: as §1

[10] = test system: Clostridium sporogenes (spores) DCS 812sp; conditions: ppm of the active component
Protocol: as §1

[11] = test system: Clostridium sporogenes DCS 541
Protocol: as §1

[12] = test system: Clostridium sporogenes DCS 808
Protocol: as §1

[13] = test system: Clostridium sporogenes DCS 812
Protocol: as §1

[14] = test system: Debaryomyces hansenii DCS 605
Protocol: as §1

Escherichia coli DCS 497 = test system: Escherichia coli DCS 497
Protocol: as §1

Hafnia alvei DCS 613 = test system: Hafnia alvei DCS 613
Protocol: as §1

[15] = test system: Klebsiella oxytoca DCS 567
Protocol: as §1

[16] = test system: Lactobacilllus farciminis DCS 611; conditions: ppm of the active component
Protocol: as §1

[17] = Bacillus cereus, DCS500, ppm of the active component
[18] = Bacillus licheniformis, DCS561, ppm of the active component
[19] = Bacillus mycoides, DCS565, ppm of the active component
[20] = Brochothrix thermosphacta, DCS780, ppm of the active component
[21] = Candida tropicalis, DCS604, ppm of the active component
[22] = Citrobacter freundii, DCS566, ppm of the active component
[23] = Clostridium algidicarnis, DCS563, ppm of the active component
[24] = Clostridium sporogenes, DCS541, ppm of the active component
[25] = Clostridium sporogenes, DCS808, ppm of the active component
[26] = Clostridium sporogenes, DCS812, ppm of the active component
[27] = Debaryomyces hansenii, DCS605, ppm of the active component
[28] = Escherichia coli, DCS497, ppm of the active component
[29] = Hafnia alvei, DCS613, ppm of the active component
[30] = Klebsiella oxytoca, DCS567, ppm of the active component

Work on CCCCCCCCCCCC(=O)N[C@@H](CCCNC(=N)N)C(=O)OCC.Cl [LAE, N^α-Lauroyl-L-arginine ethyl ester monohydrochloride] yielded an MBC (Bacillus cereus DCS 500; [17]) of 14.6 µg/mL, an MIC (Bacillus cereus DCS 500; [17]) of 12.1 µg/mL and an increased lag phase (Bacillus cereus DCS 500; ppm of the active component) of 6.5 ppm. For the same molecule, the MBC ([1]; Bacillus licheniformis) was 61.5 µg/mL, the MIC ([1]; Bacillus licheniformis) was 6.5 µg/mL and the increased lag phase [1] was 6.5 ppm. It also gave an MBC [2, 18] of 14.6 µg/mL, an MIC [2, 18] of 14.6 µg/mL and an increased lag phase ([2]; ppm of the active component) of 4.3 ppm. For the same molecule, the MBC [3, 19] was 14.6 µg/mL, the MIC [3, 19] was 14.6 µg/mL and the increased lag phase ([3]; ppm of the active component) was 10.5 ppm. It also gave an MBC [4, 20] of 9.7 µg/mL, an MIC [4, 20] of 8.1 µg/mL and an increased lag phase ([4]; ppm of the active component) of 4.3 ppm. For the same molecule, the MBC (Candida pulcherrima H117; Metschnikowia pulcherrima) was 14.6 µg/mL, the MIC (Candida pulcherrima H117; Metschnikowia pulcherrima) was 9.7 µg/mL and the increased lag phase (Candida pulcherrima H117) was 6.5 ppm. It also gave an MBC [5, 21] of 4.3 µg/mL, an MIC [5, 21] of 4.3 µg/mL and an increased lag phase ([5]; ppm of the active component) of 4.3 ppm. For the same molecule, the MBC [6, 22] was 21.9 µg/mL, the MIC [6, 22] was 18.2 µg/mL and the increased lag phase ([6]; ppm of the active component) was 8.1 ppm. For the same molecule, the MBC [7, 23] was 14.9 µg/mL, the MIC [7, 23] was 9.7 µg/mL and the increased lag phase ([7]; ppm of the active component) was 6.5 ppm. It also gave an MBC ([8]; Clostridium sporogenes) of 14.6 µg/mL, an MIC ([8]; Clostridium sporogenes) of 9.7 µg/mL and an increased lag phase [8] of 9.7 ppm. The MBC ([9]; Clostridium sporogenes) was 18.3 µg/mL, the MIC ([9]; Clostridium sporogenes) was 8.1 µg/mL and the increased lag phase [9] was 8.1 ppm. The MBC ([10]; Clostridium sporogenes) was 8.1 µg/mL, the MIC ([10]; Clostridium sporogenes) was 4.3 µg/mL and the increased lag phase [10] was 4.3 ppm. For the same molecule, the MBC [11, 24] was 9.7 µg/mL, the MIC [11, 24] was 9.7 µg/mL and the increased lag phase ([11]; ppm of the active component) was 9.7 ppm. The MBC [12, 25] was 9.7 µg/mL, the MIC [12, 25] was 9.7 µg/mL and the increased lag phase ([12]; ppm of the active component) was 9.7 ppm. It also gave an MBC [13, 26] of 9.7 µg/mL, an MIC [13, 26] of 9.7 µg/mL and an increased lag phase ([13]; ppm of the active component) of 9.7 ppm. For the same molecule, the MBC [14, 27] was 4.3 µg/mL, the MIC [14, 27] was 4.3 µg/mL and the increased lag phase ([14]; ppm of the active component) was 4.3 ppm. It also gave an MBC (Escherichia coli DCS 497; [28]) of 21.9 µg/mL, an MIC (Escherichia coli DCS 497; [28]) of 21.9 µg/mL and an increased lag phase (Escherichia coli DCS 497; ppm of the active component) of 18.2 ppm. For the same molecule, the MBC (Hafnia alvei DCS 613; [29]) was 27.4 µg/mL, the MIC (Hafnia alvei DCS 613; [29]) was 21.9 µg/mL and the increased lag phase (Hafnia alvei DCS 613; ppm of the active component) was 10.5 ppm. For the same molecule, the MBC [15, 30] was 41 µg/mL, the MIC [15, 30] was 32.8 µg/mL and the increased lag phase ([15]; ppm of the active component) was 18.2 ppm. For the same molecule, the MBC [16] was > 166 µg/mL.
